Source: patent publication US8044074B2, “Substituted heterocycles, their use as medicament, and pharmaceutical preparations comprising them” (Sanofi-Aventis, priority 2005, dated 2011)

target: Human TASK-1 channels (UniProt O14649); test: Activity on the TASK-1 channel, two-microelectrode voltage clamp on xenopus oocytes; format: cell-based; details: TASK-1 expressed in Xenopus laevis oocytes; percent inhibition of control current fitted with Hill equation; room temperature; read-out: mTask-1 IC-50
Experimental: Determination of the Activity on the TASK-1 Channel
Human TASK-1 channels were expressed in xenopus oocytes. For this purpose, firstly oocytes were isolated from Xenopus laevis and defolliculated. TASK-1-encoding RNA synthesized in vitro was then injected into these oocytes. After TASK-1 protein expression for 2 days, TASK-1 currents were measured on the oocytes using the two-microelectrode voltage clamp technique. The TASK-1 channels were in this case usually activated with voltage jumps lasting 250 ms to 40 mV. A solution of the following composition flowed through the bath: NaCl 96 mM, KCl 2 mM, CaCl2 1.8 mM, MgCl2 1 mM, HEPES 5 mM (titrated to pH 7.4 with NaOH). These experiments were carried out at room temperature. The following were employed for data acquisition and analysis: Geneclamp amplifier (Axon Instruments, Foster City, USA) and MacLab D/A converter and software (ADinstruments, Castle Hill, Australia). The substances of the invention were tested by adding them in various concentrations to the bath solution. The effects of the substances were calculated as percent inhibition of the TASK-1 control current which was obtained when no substance was added to the solution. The data were then extrapolated using the Hill equation in order to determine the half-maximum inhibitory concentrations (IC50) for the respective substances.

| IC50 | SMILES |
| --- | --- |
| 3100 nM | O=c1ccccn1[C@@H](c1ccc(F)cc1)[C@H](OCC1CC1)c1ccc(F)cc1 (racemic) [Example 9, 1R′,2S′-1-[2-Cyclopropylmethoxy-1,2-bis-(4-fluorophenyl)ethyl]-1H-pyridin-2-one] |

target: T1, Human Kv1.5 channels (Homo sapiens, UniProt P22460); test: Activity on the Kv1.5 channel, two-microelectrode voltage clamp on xenopus oocytes; format: cell-based; details: human Kv1.5 expressed in Xenopus laevis oocytes; percent inhibition of control current fitted with Hill equation; room temperature; read-out: Kv1.5 IC-50
T1 construct: expressed in transfected cells; host or cells: Xenopus laevis oocytes (injection of RNA synthesized in vitro)
T1 sequence (P22460 whole entry): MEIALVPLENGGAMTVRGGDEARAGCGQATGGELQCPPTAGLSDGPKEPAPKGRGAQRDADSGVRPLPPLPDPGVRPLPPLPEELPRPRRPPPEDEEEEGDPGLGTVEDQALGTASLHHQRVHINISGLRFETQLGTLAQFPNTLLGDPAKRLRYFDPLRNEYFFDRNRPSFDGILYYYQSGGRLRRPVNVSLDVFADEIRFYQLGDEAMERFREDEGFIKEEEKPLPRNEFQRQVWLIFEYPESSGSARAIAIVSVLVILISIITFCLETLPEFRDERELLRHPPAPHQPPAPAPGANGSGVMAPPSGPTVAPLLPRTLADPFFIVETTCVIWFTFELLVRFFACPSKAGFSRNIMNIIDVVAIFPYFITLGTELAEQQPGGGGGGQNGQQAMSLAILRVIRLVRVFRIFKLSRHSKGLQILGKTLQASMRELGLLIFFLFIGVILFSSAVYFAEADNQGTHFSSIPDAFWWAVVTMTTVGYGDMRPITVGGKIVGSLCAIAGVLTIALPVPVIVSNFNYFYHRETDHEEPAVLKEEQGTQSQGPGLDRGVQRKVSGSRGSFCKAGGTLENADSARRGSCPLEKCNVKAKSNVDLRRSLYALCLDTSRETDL
Experimental: Determination of the Activity on the Kv1.5 Channel
Human Kv1.5 channels were expressed in xenopus oocytes. For this purpose, firstly oocytes were isolated from Xenopus laevis and defolliculated. Kv1.5-encoding RNA synthesized in vitro was then injected into these oocytes. After Kv1.5 protein expression for 1-7 days, Kv1.5 currents were measured on the oocytes using the two-microelectrode voltage clamp technique. The Kv1.5 channels were in this case usually activated with voltage jumps lasting 500 ms to 0 mV and 40 mV. A solution of the following composition flowed through the bath: NaCl 96 mM, KCl 2 mM, CaCl2 1.8 mM, MgCl2 1 mM, HEPES 5 mM (titrated to pH 7.4 with NaOH). These experiments were carried out at room temperature. The following were employed for data acquisition and analysis: Geneclamp amplifier (Axon Instruments, Foster City, USA) and MacLab D/A converter and software (ADinstruments, Castle Hill, Australia). The substances of the invention were tested by adding them in various concentrations to the bath solution. The effects of the substances were calculated as percent inhibition of the Kv1.5 control current which was obtained when no substance was added to the solution. The data were then extrapolated using the Hill equation in order to determine the inhibitory concentrations IC50 for the respective substances.

| IC50 | SMILES |
| --- | --- |
| 1830 nM | COc1ccc([C@@H](OCC2CC2)[C@@H](c2ccc(F)cc2)n2ccccc2=O)cc1 (racemic) [Example 17, 1R′,2R′-1-[2-Cyclopropylmethoxy-1-(4-fluorophenyl)-2-(4-methoxyphenyl)ethyl]-1H-pyridin-2-one] |
| 780 nM | O=c1ccc(F)cn1C(c1ccccc1)C(OCC1CC1)c1ccccc1 (racemic) [Example 3, 1-(2-Cyclopropylmethoxy-1,2-diphenylethyl)-5-fluoro-1H-pyridin-2-one] |
| 1470 nM | O=c1ccc(F)cn1[C@H](c1ccccc1)[C@H](OCC1CC1)c1ccccc1 (racemic) [Example 12, 1R′,2R′-1-(2-Cyclopropylmethoxy-1,2-diphenylethyl)-5-fluoro-1H-pyridin-2-one] |
| 330 nM | O=c1ccccn1[C@H](c1ccc(F)cc1)[C@H](OCC1CC1)c1ccc(F)cc1 (racemic) [Example 8, 1R′,2R′-1-[2-Cyclopropylmethoxy-1,2-bis(4-fluorophenyl)ethyl]-1H-pyridin-2-one] |
| 4560 nM | O=c1ccc(F)cn1C(c1ccc(F)cc1)C(OCC1CC1)c1ccc(F)cc1 (racemic) [Example 16, 1-[2-Cyclopropylmethoxy-1,2-bis-(4-fluorophenyl)ethyl]-5-fluoro-1H-pyridin-2-one] |
| 2030 nM | N#Cc1ccc(C(OCC2CC2)C(c2ccc(F)cc2)n2ccccc2=O)cc1 (racemic) [Example 11, 4-[1-Cyclopropylmethoxy-2-(4-fluorophenyl)-2-(2-oxo-2H-pyridin-1-yl)ethyl]benzonitrile] |
| 2690 nM | COc1ccc(CO[C@H](c2ccc(OC)cc2)[C@H](c2ccc(F)cc2)n2ccccc2=O)cc1 (racemic) [Example 18, 1R′,2S′-1-[1-(4-Fluorophenyl)-2-(4-methoxybenzyloxy)-2-(4-methoxyphenyl)ethyl]-1H-pyridin-2-one] |
| 1300 nM | COc1ccc([C@@H](OCC2CC2)[C@H](c2ccc(F)cc2)n2ccccc2=O)cc1 (racemic) [Example 2, 1R′,2S′-1-[2-Cyclopropylmethoxy-1-(4-fluorophenyl)-2-(4-methoxy-phenyl)ethyl]-1H-pyridin-2-one] |
| 4480 nM | COc1ccc(CO[C@H](c2ccc(OC)cc2)[C@@H](c2ccc(F)cc2)n2ccccc2=O)cc1 (racemic) [Example 13, 1R′,2R′-1-[1-(4-Fluorophenyl)-2-(4-methoxybenzyloxy)-2-(4-methoxyphenyl)ethyl]-1H-pyridin-2-one] |
| 870 nM | O=c1ccccn1C(c1ccc(F)cc1)C(OCC1CC1)c1ccc(Br)cc1 (racemic) [Example 10, 1-[2-(4-Bromophenyl)-2-cyclopropylmethoxy-1-(4-fluorophenyl)ethyl]-1H-pyridin-2-one] |
| 1050 nM | O=c1cccnn1C(c1ccccc1)C(OCC1CC1)c1ccc(Cl)cc1 (racemic) [Example 4, 2-[2-(4-Chlorophenyl)-2-cyclopropylmethoxy-1-phenylethyl]-2H-pyridazin-3-one] |
| 2510 nM | N#Cc1ccc(COC(c2ccc(Cl)cc2)C(c2ccccc2)n2ccccc2=O)cc1 (racemic) [Example 15, 4-[1-(4-Chlorophenyl)-2-(2-oxo-2H-pyridin-1-yl)-2-phenylethoxymethyl]benzonitrile] |
| 380 nM | O=c1ccccn1[C@H](c1ccccc1)[C@H](OCC1CC1)c1ccccc1 (racemic) [Example 1, 1R′,2R′-1-(2-Cyclopropylmethoxy-1,2-diphenylethyl)-1H-pyridin-2-one] |
| 410 nM | O=c1ccccn1[C@@H](c1ccc(F)cc1)[C@H](OCC1CC1)c1ccc(F)cc1 (racemic) [Example 9, 1R′,2S′-1-[2-Cyclopropylmethoxy-1,2-bis-(4-fluorophenyl)ethyl]-1H-pyridin-2-one] |
| 20000 to 50000 nM | N#Cc1ccc(O[C@H](c2ccc(F)cc2)[C@@H](c2ccc(F)cc2)n2cc(F)ccc2=O)cc1 (racemic) [Example 5, 1R′,2R′-5-Fluoro-1-(2-p-cyanophenoxy-1,2-di-p-fluorophenylethyl)-1H-pyridin-2-one] |
| 6480 nM | O=c1ccc(F)cn1C(c1ccc(F)cc1)C(OC1CC1)c1ccc(F)cc1 (racemic) [Example 6, 1-[2-Cyclopropoxy-1,2-bis-(4-fluorophenyl)ethyl]-5-fluoro-1H-pyridin-2-one] |
| 1400 nM | O=c1ccccn1C(c1ccc(F)cc1)C(OCC1CC1)c1ccc(F)cc1 (racemic) [Example 14, 1-[2-Cyclopropylmethoxy-1,2-bis-(4-fluorophenyl)ethyl]-1H-pyridin-2-one] |
| 180 nM | O=c1ccccn1C(c1ccccc1)C(OCC1CC1)c1ccc(Cl)cc1 (racemic) [Example 7, 1-[2-(4-Chlorophenyl)-2-cyclopropylmethoxy-1-phenylethyl]-1H-pyridin-2-one] |
